Experimental data: ChEMBL document CHEMBL4340538, “Cynaropicrin and inhibition of NF-κB activation: A structure activity relationship study” (Bioorg Med Chem Lett, 2019)
The source made the active and inactive calls. The rule behind the calls is not given here.

Legend:
Format in all cases: cell-based
HEK293 [1] = test: Inhibition of TNFalpha-induced NFkappaB activation in human HEK293 cells expressing pGL4.32 [luc2p/NF-kBRE/Hygro] assessed as NFkappaB activity by measuring relative light units at 3 uM incubated for 2 hrs followed by TNFalpha addition and measured after 5 hrs by luciferase reporter gene assay
HEK293 [2] = test: Inhibition of TNFalpha-induced NFkappaB activation in human HEK293 cells expressing pGL4.32 [luc2p/NF-kBRE/Hygro] assessed as NFkappaB activity by measuring relative light units at 0.75 uM incubated for 2 hrs followed by TNFalpha addition and measured after 5 hrs by luciferase reporter gene assay
HEK293 [3] = test: Inhibition of TNFalpha-induced NFkappaB activation in human HEK293 cells expressing pGL4.32 [luc2p/NF-kBRE/Hygro] assessed as NFkappaB activity by measuring relative light units at 1.5 uM incubated for 2 hrs followed by TNFalpha addition and measured after 5 hrs by luciferase reporter gene assay
HEK293 [4] = test: Cytotoxicity against human HEK293 cells at 0.75 uM to 3 uM after 7 hrs by WST-8 assay; settings: hek293, 7 h
HEK293 [5] = test: Cytotoxicity against human HEK293 cells at 3 uM after 7 hrs by WST-8 assay; settings: hek293, 7 h
HEK293 [6] = test: Inhibition of TNFalpha-induced NFkappaB activation in human HEK293 cells expressing pGL4.32 [luc2p/NF-kBRE/Hygro] at 2.5 uM to 10 uM incubated for 2 hrs followed by TNFalpha addition and measured after 5 hrs by luciferase reporter gene assay
HEK293 [7] = test: Inhibition of TNFalpha-induced NFkappaB activation in human HEK293 cells expressing pGL4.32 [luc2p/NF-kBRE/Hygro] at 80 uM incubated for 2 hrs followed by TNFalpha addition and measured after 5 hrs by luciferase reporter gene assay

SMILES | Activity (HEK293 [1]) | Activity (HEK293 [2]) | Activity (HEK293 [3]) | Activity (HEK293 [4]) | Activity (HEK293 [5]) | inhibition (HEK293 [6]) | inhibition (HEK293 [7])
C=C(COC(C)=O)C(=O)O[C@H]1CC(=C)[C@@H]2C[C@H](OC(C)=O)C(=C)[C@@H]2[C@H]2OC(=O)C(=C)[C@@H]21 | 93.5 RLU | 171 RLU | 142 RLU | Non-Toxic | Non-Toxic |  | 
C=C1[C@@H]2[C@H]3OC(=O)C(C)[C@@H]3[C@@H](OC(=O)C(C)CO)CC(=C)[C@@H]2C[C@@H]1O (some centres not stated) | 137 RLU | 123 RLU | 139 RLU | Non-Toxic | Non-Toxic |  | 
C=C1C(=O)O[C@@H]2[C@H]3C(=C)[C@@H](O)C[C@H]3C(=C)C[C@H](OC(=O)C(C)CO)[C@@H]12 (some centres not stated) | 137 RLU | 123 RLU | 135 RLU | Non-Toxic | Non-Toxic |  | 
C=C(COC(C)=O)C(=O)O[C@H]1CC(=C)[C@@H]2C[C@H](O)C(=C)[C@@H]2[C@H]2OC(=O)C(=C)[C@@H]21 | 33.8 RLU | 130 RLU | 110 RLU | Non-Toxic | Non-Toxic |  | 
C=C(COC)C(=O)O[C@H]1CC(=C)[C@@H]2C[C@H](OC)C(=C)[C@@H]2[C@H]2OC(=O)C(=C)[C@@H]21 | 134 RLU | 174 RLU | 158 RLU | Non-Toxic | Non-Toxic |  | 
C=C(COCOC)C(=O)O[C@H]1CC(=C)[C@@H]2C[C@H](OCOC)C(=C)[C@@H]2[C@H]2OC(=O)C(=C)[C@@H]21 | 8.97 RLU | 154 RLU | 98.3 RLU | Non-Toxic | Non-Toxic |  | 
C=C(CO)C(=O)O[C@H]1CC(=C)[C@@H]2C[C@H](O)C(=C)[C@@H]2[C@H]2OC(=O)C(=C)[C@@H]21 [CYNAROPICRIN] | 5.67 RLU | 134 RLU | 72.8 RLU | Non-Toxic | Non-Toxic | Active | 
S=C(S)N1CCCC1 |  |  |  |  |  |  | Active
C=C1C(=O)O[C@@H]2[C@H]3C(=C)[C@@H](OCOC)C[C@H]3C(=C)C[C@H](O)[C@@H]12 | 100 RLU | 127 RLU | 125 RLU | Non-Toxic | Non-Toxic |  | 
C=C1C(=O)O[C@@H]2[C@H]3C(=C)[C@@H](O)C[C@H]3C(=C)C[C@H](O)[C@@H]12 [DESACYLCYNAROPICRIN] | 96.4 RLU | 127 RLU | 119 RLU | Non-Toxic | Non-Toxic |  | 
C=C(COC)C(=O)O[C@H]1CC(=C)[C@@H]2C[C@H](O)C(=C)[C@@H]2[C@H]2OC(=O)C(=C)[C@@H]21 | 137 RLU | 161 RLU | 151 RLU | Non-Toxic | Non-Toxic |  | 
